From US20110177061A1, “METHODS OF TREATING AND PREVENTING NEUROLOGICAL DISORDERS USING DOCOSAHEXAENOIC ACID” (MARTEK BIOSCIENCES CORPORATION, priority 2009, published 2011)
“Also recorded” adds a separate entry of the source.

What was measured:
[1] = Plasma phospholipid DHA levels in clinical trial; type: in vivo, human; details: DHA treatment group
Excerpt: (§1) In the study, 402 individuals with mild to moderate Alzheimer's disease participated for 18 months at sites throughout the United States. Participants were randomized so that 60% of participants received approximately 2 grams of DHA (divided into 4 capsules—2 capsules taken twice a day), while 40% of the participants received an identical placebo of corn/soy oil. The DHA soft-gel capsules used in the study were provided by Martek Biosciences Corporation, and contained a microbial oil of 55% DHA (as a percentage of total fatty acids) in triglyceride form, in addition to tocopherol and orange flavoring. The capsules contained no detectable EPA. The placebo was a 50/50 mixture of corn/soy oil and also included mixed tocopherols, ascorbyl, palmitate, orange flavoring, and orange masking agent.
(§2) Various parameters were measured at baseline and at every 6 months through the conclusion of the trial at 18 months.
(§3) Plasma phospholipid fatty acid levels were determined using established methods, with modifications for cerebrospinal fluid analysis (Arterburn et al., 2007, Lipids 42(11):1011-1024; Arterburn et al., 2008, J Am Diet Assoc. 108(7):1204-1209). The fatty acid profiles were expressed as a percent of the total μg of fatty acid (weight percent).

[2] = Cerebrospinal fluid (CSF) DHA levels in CSF sub-study; type: in vivo, human
Method: All subjects without contraindication to cerebrospinal fluid (CSF) exam (e.g., anticoagulation) were invited to participate in the CSF study. In these subjects, lumbar puncture was performed in the morning after an overnight fast.
as §3

[3] = system: human patients with mild to moderate Alzheimer's disease; test: ADAS-cog (co-primary outcome) in clinical trial; type: in vivo
Method: as §1, with “A clinical trial was carried out to determine whether chronic DHA supplementation slows the progression of cognitive and functional decline in human patients with mild to moderate Alzheimer's disease. In” for “In”, “agent. Following the eligibility assessment, 238 of the 402 patients were randomly assigned to the DHA treatment group and 164 patients to the placebo group. Of the 238 patient DHA treatment group, 171 patients completed the full 18 month course of treatment. Of the 164 placebo group, 124 patients completed the full 18 month course of treatment. Various parameters were measured at baseline and at every 6 months through the conclusion of the trial at 18 months.” for “agent.”

[4] = system: human patients with mild to moderate Alzheimer's disease; test: CDR-SOB (co-primary outcome) in clinical trial; type: in vivo
Method: as §1, with “A clinical trial was carried out to determine whether chronic DHA supplementation slows the progression of cognitive and functional decline in human patients with mild to moderate Alzheimer's disease. In” for “In”, “agent. Following the eligibility assessment, 238 of the 402 patients were randomly assigned to the DHA treatment group and 164 patients to the placebo group. Of the 238 patient DHA treatment group, 171 patients completed the full 18 month course of treatment. Of the 164 placebo group, 124 patients completed the full 18 month course of treatment. Various parameters were measured at baseline and at every 6 months through the conclusion of the trial at 18 months.” for “agent.”

[5] = system: human patients with mild to moderate Alzheimer's disease; test: ADCS-ADL (secondary outcome) in clinical trial; type: in vivo
Method: as §1, with “A clinical trial was carried out to determine whether chronic DHA supplementation slows the progression of cognitive and functional decline in human patients with mild to moderate Alzheimer's disease. In” for “In”, “agent. Following the eligibility assessment, 238 of the 402 patients were randomly assigned to the DHA treatment group and 164 patients to the placebo group. Of the 238 patient DHA treatment group, 171 patients completed the full 18 month course of treatment. Of the 164 placebo group, 124 patients completed the full 18 month course of treatment. Various parameters were measured at baseline and at every 6 months through the conclusion of the trial at 18 months.” for “agent.”

[6] = system: human patients with mild to moderate Alzheimer's disease; test: NPI (secondary outcome) in clinical trial; type: in vivo
Method: as §1, with “A clinical trial was carried out to determine whether chronic DHA supplementation slows the progression of cognitive and functional decline in human patients with mild to moderate Alzheimer's disease. In” for “In”, “agent. Following the eligibility assessment, 238 of the 402 patients were randomly assigned to the DHA treatment group and 164 patients to the placebo group. Of the 238 patient DHA treatment group, 171 patients completed the full 18 month course of treatment. Of the 164 placebo group, 124 patients completed the full 18 month course of treatment. Various parameters were measured at baseline and at every 6 months through the conclusion of the trial at 18 months.” for “agent.”

[7] = system: human patients with mild to moderate Alzheimer's disease; test: MMSE (secondary outcome) in clinical trial; type: in vivo
Method: as §1, with “A clinical trial was carried out to determine whether chronic DHA supplementation slows the progression of cognitive and functional decline in human patients with mild to moderate Alzheimer's disease. In” for “In”, “agent. Following the eligibility assessment, 238 of the 402 patients were randomly assigned to the DHA treatment group and 164 patients to the placebo group. Of the 238 patient DHA treatment group, 171 patients completed the full 18 month course of treatment. Of the 164 placebo group, 124 patients completed the full 18 month course of treatment. Various parameters were measured at baseline and at every 6 months through the conclusion of the trial at 18 months.” for “agent.”

[8] = system: human patients with mild to moderate Alzheimer's disease; test: MRI sub-study, brain volume change; type: in vivo
Method: as §1, with “A clinical trial was carried out to determine whether chronic DHA supplementation slows the progression of cognitive and functional decline in human patients with mild to moderate Alzheimer's disease. In” for “In”

[9] = system: human patients with mild to moderate Alzheimer's disease; test: Vital signs and lab results in clinical trial; type: in vivo; details: 18 month trial
Method: (§4) A clinical trial was carried out to determine whether chronic DHA supplementation slows the progression of cognitive and functional decline in human patients with mild to moderate Alzheimer's disease.
as §1, §2

[10] = system: human patients with mild to moderate Alzheimer's disease; test: Pre-planned secondary analysis of DHA treatment and ApoE4 allelic status, all outcome measures; type: in vivo
Method: as §4, §1
A pre-planned secondary analysis was also carried out examining the effect of DHA treatment and ApoE4 (E4) allelic status. […] This effect was also evident on the MMSE (−3.36±4.78 in DHA compared to 5.12±5.08 in placebo; p=0.034), but was not present on the CDR-SOB, the ADCS-ADL, or the NPI.

[11] = all subjects, LME model, GEE or ANCOVA

Plasma phospholipid DHA ([1]; approx. 2 g DHA/day oral, 6 months): 9.1 wt % | Plasma phospholipid DHA ([1]; approx. 2 g DHA/day oral, 12 months): 10.23 wt % | Plasma phospholipid DHA ([1]; approx. 2 g DHA/day oral, 18 months, p<0.001): 9.77 wt % | Plasma phospholipid DHA ([1]; baseline (before treatment)): 3.18 wt % | CSF DHA ([2]; DHA supplemented group n=29, 18 months, p<0.001): 3.45 wt % | CSF DHA ([2]; DHA supplemented group n=29, baseline (before treatment)): 2.53 wt %
SMILES: CC/C=C\C/C=C\C/C=C\C/C=C\C/C=C\C/C=C\CCC(=O)O [DHA, (all-Z)-4,7,10,13,16,19-docosahexaenoic acid]
ADAS-cog points change over 18 months, E4-negative group ([3]; ApoE4-negative, 61 DHA subjects, placebo 10.11±10.58 (48 subjects), p=0.028): 6.23±8.58 points | Difference DHA vs placebo in 12 month ADAS scores ([3]; Wilcoxan rank p=0.027, FIG. 1): modest difference | Difference DHA vs placebo on ADAS-cog (rate of change) ([3]; all subjects, LME model, 18 months): did not differ; also recorded: no significant difference | ADAS-cog points change over 18 months ([3]; all subjects, unadjusted, placebo 7.98±9.84, p=0.41): 8.27±8.9 points | ADAS-cog decline in ApoE4 negative subjects with MMSE >21 compared to MMSE ≦21 ([3]; post hoc analysis, FIGS. 7A and 7B): significantly less decline; also recorded: more pronounced | Difference in the effect of DHA administration on ADAS-cog between ApoE4-positive and ApoE4-negative subjects ([3]; pre-specified sub-group analysis, FIGS. 6A and 6B): statistically significant difference | DHA treatment effect on CDR-SOB in the E4-negative group ([4]; ApoE4-negative subjects): not present | Difference DHA vs placebo on CDR-SOB (rate of change) ([4]; all subjects, LME model, GEE or ANCOVA, ITT or per protocol): also did not differ; also recorded: no significant difference | CDR-SOB points change over 18 months ([4]; all subjects, placebo 2.87±2.93, p=0.68): 2.93±2.83 points | DHA treatment effect on ADCS-ADL in the E4-negative group ([5]; ApoE4-negative subjects): not present | ADCS-ADL points change over 18 months (rate of decline) ([5]; all subjects, LME analysis, placebo 10.43±11.74, p=0.38): 11.51±13.23 points | Difference DHA vs placebo on ADCS-ADL [5, 11]: no significant difference | DHA treatment effect on NPI in the E4-negative group ([6]; ApoE4-negative subjects): not present | NPI points change over 18 months ([6]; all subjects, LME analysis, placebo 5.09±15.08, p=0.11): 2.93±13.62 points | Difference DHA vs placebo on NPI [6, 11]: no significant difference | MMSE change, E4-negative group ([7]; ApoE4-negative, placebo printed 5.12±5.08, p=0.034): −3.36±4.78 | MMSE points change from baseline to 18 months ([7]; all subjects, ANCOVA, placebo −4.0±4.7, p=0.88): −3.70±4.95 points | Difference DHA vs placebo on MMSE ([7]; all subjects, after 18 months of treatment): no significant difference | Absolute volume change over 18 months, total ventricular volume ([8]; MRI sub-study n=53 DHA, placebo 8.1±5.9, p=0.55): 9.1±5.0 cm^3 | Absolute volume change over 18 months, total brain ([8]; MRI sub-study n=53 DHA, placebo 24.0±14.6, p=0.79): 24.7±12.3 cm^3 | Absolute volume change over 18 months, right hippocampus ([8]; MRI sub-study n=53 DHA, placebo 148±109, p=0.29): 176±128 mm^3 | Absolute volume change over 18 months, left hippocampus ([8]; MRI sub-study n=53 DHA, placebo 175±135, p=0.17): 141±104 mm^3 | Effect of DHA treatment on absolute amount of brain volume change over 18 months ([8]; MRI sub-study, ANCOVA, total brain, hippocampus, total ventricular volume): no evidence of an effect | Effect of DHA on rates of brain atrophy among ApoE4 negative subjects ([8]; MRI sub-study, n=21 DHA, n=17 placebo): Neither was an effect of DHA seen | Cholesterol level change [9]: modest increase | Diastolic blood pressure change [9]: modest decline | HDL level change [9]: no change | Heart rate change [9]: modest decline | LDL level change [9]: modest increase | Systolic blood pressure change [9]: no change | Triglycerides change [9]: modest decline | Weight change [9]: no change | Benefit in reducing decline in cognitive ability in AD subjects negative for the ApoE4 allele ([10]; ApoE4-negative subjects afflicted with AD): significant benefit | DHA treatment effect on any outcome measure in the E4-positive group ([10]; ApoE4-positive subjects): no DHA treatment effect
